Data taken from ChEMBL document CHEMBL5096202, “Carbon-silicon switch led to the discovery of novel synthetic cannabinoids with therapeutic effects in a mouse model of multiple sclerosis” (Eur J Med Chem, 2021).
Calls of active or inactive are those of the source. No cut-off for these calls is given here.

Tests used:
[1] = Half life in C57BL/6 mouse at 10 mg/kg, ip measured upto 24 hrs by LC-MS/MS analysis; type: ADME, organism-based; details: in vivo
[2] = Metabolic stability in mouse liver microsomes assessed as intrinsic clearance; type: ADME, Microsome; details: read-out: CLH
[3] = Metabolic stability in human liver microsomes assessed as intrinsic clearance; type: ADME, Microsome; details: read-out: CLH
[4] = AUCinfinity in C57BL/6 mouse at 10 mg/kg, ip measured upto 24 hrs by LC/MS-MS analysis; type: ADME, organism-based; set-up: dose 10 mg/kg, time < 24 hrs, route ip; details: in vivo
Mus musculus [5] = experiment: (§1) Antiinflammatory activity in MOG (35 to 55 residues)/pertussis toxin-induced experimental autoimmune encephalomyelitis C57BL/6 mouse model assessed as reduction in demyelination in transverse section of lumbar spinal cords at 5 to 10 mg/kg, ip administered starting from day 3 to day 28 by H&E staining based analysis; type: functional, organism-based; details: dose 5-10 mg/kg, time 25.0 day
[6] = Toxicity in MOG (35 to 55 residues)/pertussis toxin-induced experimental autoimmune encephalomyelitis C57BL/6 mouse model assessed as behavioral changes at 10 mg/kg, ip administered once daily starting from day 3 to day 28; type: organism-based; details: in vivo, 600 h, time 25 day
[7] = Tmax in C57BL/6 mouse at 10 mg/kg, ip measured upto 24 hrs by LC-MS/MS analysis; type: ADME, organism-based; details: in vivo
[8] = AUClast in C57BL/6 mouse at 10 mg/kg, ip measured upto 24 hrs by LC-MS/MS analysis; type: ADME, organism-based; set-up: time < 24 hrs, dose 10 mg/kg, route ip; details: in vivo
[9] = Metabolic stability in mouse liver microsomes assessed as half life; type: ADME, Microsome
[10] = Toxicity in MOG (35 to 55 residues)/pertussis toxin-induced experimental autoimmune encephalomyelitis C57BL/6 mouse model assessed as body weight loss at 5 to 10 mg/kg, ip administered starting from day 3 to day 28; type: organism-based; details: in vivo, 600 h, dose 5-10 mg/kg, time 25 day
Mus musculus [11] = experiment: as §1, with “infarcted brain proportion” for “demyelination in transverse section of lumbar spinal cords”, “TTC” for “H&E”, “analysis relative to control” for “analysis”; type: functional; set-up: scale not given: the % may be the effect or the level left; details: dose 5-10 mg/kg, time 25 day
Mus musculus [12] = experiment: as §1, with “of inflammatory cell infiltration” for “in demyelination”, “LFB” for “H&E”; type: functional, organism-based; details: dose 5-10 mg/kg, time 25.0 day
[13] = Metabolic stability in rat liver microsomes assessed as half life; type: ADME, Microsome
Cannabinoid receptor 1 [14] = target: T1, Cannabinoid receptor 1 (Homo sapiens, UniProt P21554); experiment: Agonist activity at recombinant human CB1 receptor expressed in CHO cells assessed as inhibition of forskolin-induced cAMP accumulation preincubated for 15 mins followed by forskolin stimulation and measured after 15 mins by HTRF assay; type: functional, cell-based
T1 sequence (P21554 whole entry): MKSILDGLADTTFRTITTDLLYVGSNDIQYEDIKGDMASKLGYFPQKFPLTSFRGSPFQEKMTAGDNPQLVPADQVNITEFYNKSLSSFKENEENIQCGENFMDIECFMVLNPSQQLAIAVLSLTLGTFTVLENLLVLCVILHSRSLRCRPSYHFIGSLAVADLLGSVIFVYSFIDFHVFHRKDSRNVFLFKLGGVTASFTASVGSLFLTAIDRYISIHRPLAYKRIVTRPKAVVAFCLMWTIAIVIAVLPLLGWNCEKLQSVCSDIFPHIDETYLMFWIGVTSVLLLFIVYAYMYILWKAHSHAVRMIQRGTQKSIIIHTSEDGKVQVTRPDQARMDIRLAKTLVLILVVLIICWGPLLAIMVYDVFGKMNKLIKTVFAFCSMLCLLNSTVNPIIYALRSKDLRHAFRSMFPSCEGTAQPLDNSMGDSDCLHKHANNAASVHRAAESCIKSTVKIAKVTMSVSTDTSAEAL

Cannabinoid receptor 1 [15] = target: T1, Cannabinoid receptor 1; experiment: Agonist activity at recombinant human CB1 receptor expressed in CHO cells assessed as inhibition of forskolin-induced cAMP accumulation by measuring maximum efficacy preincubated for 15 mins followed by forskolin stimulation and measured after 15 mins by HTRF assay relative to control; type: functional, cell-based; details: filed as agonist, time 30.0 min
Cannabinoid receptor 2 [16] = target: T2, Cannabinoid receptor 2 (Homo sapiens, UniProt P34972); experiment: Displacement of [3H]-CP55940 from recombinant human CB2 receptor expressed in CHO cells assessed as inhibition constant incubated for 120 mins by radioligand binding assay; type: cell-based
T2 sequence (P34972 whole entry): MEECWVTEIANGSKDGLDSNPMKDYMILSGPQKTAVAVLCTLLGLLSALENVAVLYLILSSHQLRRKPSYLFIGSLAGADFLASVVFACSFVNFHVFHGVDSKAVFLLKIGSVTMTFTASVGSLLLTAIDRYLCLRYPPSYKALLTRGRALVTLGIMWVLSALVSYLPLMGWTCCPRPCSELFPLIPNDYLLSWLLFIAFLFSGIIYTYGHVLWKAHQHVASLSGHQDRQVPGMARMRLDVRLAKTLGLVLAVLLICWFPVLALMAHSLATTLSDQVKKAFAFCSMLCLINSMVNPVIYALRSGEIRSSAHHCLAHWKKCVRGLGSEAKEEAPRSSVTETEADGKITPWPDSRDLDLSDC

Cannabinoid receptor 2 [17] = target: T2, Cannabinoid receptor 2; experiment: Agonist activity at recombinant human CB2 receptor expressed in CHO cells assessed as inhibition of forskolin-induced cAMP accumulation by measuring maximum efficacy preincubated for 15 mins followed by forskolin stimulation and measured after 15 mins by HTRF assay relative to control; type: functional, cell-based; details: filed as agonist, time 30.0 min
Cannabinoid receptor 2 [18] = target: T2, Cannabinoid receptor 2; experiment: Agonist activity at recombinant human CB2 receptor expressed in CHO cells assessed as inhibition of forskolin-induced cAMP accumulation preincubated for 15 mins followed by forskolin stimulation and measured after 15 mins by HTRF assay; type: functional, cell-based
Cannabinoid receptor 1 [19] = target: T1, Cannabinoid receptor 1; experiment: Displacement of [3H]-CP55940 from recombinant human CB1 receptor expressed in CHO cells assessed as inhibition constant incubated for 120 mins by radioligand binding assay; type: cell-based
Mus musculus [20] = experiment: as §1, with “LFB” for “H&E”; type: functional, organism-based; details: dose 5-10 mg/kg, time 25.0 day
[21] = Metabolic stability in human liver microsomes assessed as half life; type: ADME, Microsome
[22] = Cmax in C57BL/6 mouse at 10 mg/kg, ip measured upto 24 hrs by LC-MS/MS analysis; type: ADME, organism-based; set-up: dose 10 mg/kg, time < 24 hrs, route ip; details: in vivo
Mus musculus [23] = experiment: Antiinflammatory activity in MOG (35 to 55 residues)/pertussis toxin-induced experimental autoimmune encephalomyelitis C57BL/6 mouse model assessed as reduction in clinical score administered intraperitoneally starting from day 3 to day 28; type: functional, organism-based; details: route ip, time 25.0 day, DDE = dose-dependent effect
[24] = Metabolic stability in rat liver microsomes assessed as intrinsic clearance; type: ADME, Microsome; details: read-out: CLH
Mus musculus [25] = experiment: as §1, with “of inflammatory cell infiltration” for “in demyelination”; type: functional, organism-based; details: dose 5-10 mg/kg, time 25.0 day

C=C(C)[C@@H]1CCC(C)=C[C@H]1c1c(O)cc([Si](C)(C)CCCCCC)cc1O
half-life [1]: 314 min
CLint scaled [2]: 7.66 L/h/kg
CLint scaled [3]: 3.31 L/h/kg
AUC(0-inf) [4]: 6.84 µg·h/mL
Activity (Mus musculus [5]): Active
Activity [6]: Toxic
Tmax [7]: 120 min
AUC(0-t) at 24 h [8]: 6.63 µg·h/mL
half-life [9]: 17.1 min
Activity [10]: Non-Toxic
Activity (Mus musculus [11]): 50%
Activity (Mus musculus [12]): Active
half-life [13]: 19.4 min
EC50 (Cannabinoid receptor 1 [14]): 0.219 µM
Emax (Cannabinoid receptor 1 [15]): 95.9%
Ki (Cannabinoid receptor 2 [16]): 0.00466 µM
Emax (Cannabinoid receptor 2 [17]): 75.6%
EC50 (Cannabinoid receptor 2 [18]): 0.149 µM
Ki (Cannabinoid receptor 1 [19]): 0.00156 µM
Activity (Mus musculus [20]): Active
half-life [21]: 31.5 min
Cmax [22]: 1.51 µg/mL
Activity (Mus musculus [23]): Dde
CLint scaled [24]: 19.1 L/h/kg
Activity (Mus musculus [25]): Active
